Results as given in the supplement of paper PMC8149375.

Tests used:
Settings in all cases: treatment: drug + dasatinib (fixed dose, not stated); 5 days
786-O [1] = experiment: AUC of dose-response viability curve, drug + dasatinib, normalised to DMSO (arbitrary (AUC of normalised viability)); higher = less growth inhibition
Experimental: (§1)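 Primary HTS combination arm: 8 RCC cell lines treated with 8 doses (up to 10 uM) of each library drug plus a fixed dose of dasatinib (dose not stated) for 5 days; viability read by CellTiter-Glo and normalised to DMSO. GI50 was fitted with XLfit, AUC is the area under the dose-response curve, and minimum viability is the lowest fraction of DMSO viability across doses.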

ACHN [2] = experiment: as above
Experimental: as §1

TK-10 [3] = experiment: as above
Experimental: as §1

A498 [4] = experiment: as above
Experimental: as §1

769-P [5] = experiment: as above
Experimental: as §1

CAKI-1 [6] = experiment: as above
Experimental: as §1

UO-31 [7] = experiment: as above
Experimental: as §1

SN12C [8] = experiment: as above
Experimental: as §1

786-O [9] = experiment: minimum viability across doses, drug + dasatinib, relative to DMSO (fraction); higher = less growth inhibition
Experimental: as §1

ACHN [10] = experiment: as above
Experimental: as §1

TK-10 [11] = experiment: as above
Experimental: as §1

A498 [12] = experiment: as above
Experimental: as §1

769-P [13] = experiment: as above
Experimental: as §1

CAKI-1 [14] = experiment: as above
Experimental: as §1

UO-31 [15] = experiment: as above
Experimental: as §1

SN12C [16] = experiment: as above
Experimental: as §1

786-O [17] = experiment: GI50 of drug in presence of dasatinib; higher = less potent
Experimental: as §1

ACHN [18] = experiment: as above
Experimental: as §1

TK-10 [19] = experiment: as above
Experimental: as §1

A498 [20] = experiment: as above
Experimental: as §1

769-P [21] = experiment: as above
Experimental: as §1

CAKI-1 [22] = experiment: as above
Experimental: as §1

UO-31 [23] = experiment: as above
Experimental: as §1

SN12C [24] = experiment: as above
Experimental: as §1

SMILES | AUC of dose-response viability curve (786-O [1]) | AUC of dose-response viability curve (ACHN [2]) | AUC of dose-response viability curve (TK-10 [3]) | AUC of dose-response viability curve (A498 [4]) | AUC of dose-response viability curve (769-P [5]) | AUC of dose-response viability curve (CAKI-1 [6]) | AUC of dose-response viability curve (UO-31 [7]) | AUC of dose-response viability curve (SN12C [8]) | minimum viability across doses (786-O [9]) | minimum viability across doses (ACHN [10]) | minimum viability across doses (TK-10 [11]) | minimum viability across doses (A498 [12]) | minimum viability across doses (769-P [13]) | minimum viability across doses (CAKI-1 [14]) | minimum viability across doses (UO-31 [15]) | minimum viability across doses (SN12C [16]) | GI50 of drug (786-O [17]) [nM] | GI50 of drug (ACHN [18]) [nM] | GI50 of drug (TK-10 [19]) [nM] | GI50 of drug (A498 [20]) [nM] | GI50 of drug (769-P [21]) [nM] | GI50 of drug (CAKI-1 [22]) [nM] | GI50 of drug (UO-31 [23]) [nM] | GI50 of drug (SN12C [24]) [nM]
COc1cc(Nc2ncc(F)c(Nc3ccc4c(n3)N(COP(=O)([O-])[O-])C(=O)C(C)(C)O4)n2)cc(OC)c1OC.[Na+].[Na+] + Cc1nc(Nc2ncc(C(=O)Nc3c(C)cccc3Cl)s2)cc(N2CCN(CCO)CC2)n1 [dasatinib] | 1.78 | 1.48 | 2.17 | 3.45 | 2.15 | 1.52 | 2.8 | 2.03 | 0.245 | 0.0433 | 0.304 | 0.671 | 0.0654 | 0.00358 | 0.0117 | 0.202 | 419 | 68.7 | 2070 | > 10000 | 1630 | 161 | 1580 | 793
CNC(=O)c1ccc(C)c(-n2c(C)cc(OCc3ccc(F)cc3F)c(Br)c2=O)c1 + Cc1nc(Nc2ncc(C(=O)Nc3c(C)cccc3Cl)s2)cc(N2CCN(CCO)CC2)n1 [dasatinib] | 1.89 | 1.68 | 2.23 | 3.58 | 2.22 | 2.3 | 4.38 | 2.42 | 0.457 | 0.346 | 0.541 | 0.937 | 0.558 | 0.561 | 1.15 | 0.64 | < 3 | 90.6 | > 10000 | > 10000 | > 10000 | > 10000 | > 10000 | > 10000
CCc1cccc(CC)c1NC(=O)N1Cc2[nH]nc(NC(=O)c3ccc(N4CCN(C)CC4)cc3)c2C1 + Cc1nc(Nc2ncc(C(=O)Nc3c(C)cccc3Cl)s2)cc(N2CCN(CCO)CC2)n1 [dasatinib] | 1.79 | 1.88 | 2.43 | 2.74 | 2.4 | 1.89 | 3.44 | 1.9 | 0.0687 | 0.129 | 0.319 | 0.406 | 0.565 | 0.0817 | 0.31 | 0.117 | 469 | 566 | 4610 | 2720 | > 10000 | 818 | 7530 | 641
CN(c1ncccc1CNc1nc(Nc2ccc3c(c2)CC(=O)N3)ncc1C(F)(F)F)S(C)(=O)=O.O=S(=O)(O)c1ccccc1 + Cc1nc(Nc2ncc(C(=O)Nc3c(C)cccc3Cl)s2)cc(N2CCN(CCO)CC2)n1 [dasatinib] | 1.6 | 1.66 | 2.28 | 3.75 | 1.93 | 1.98 | 3.91 | 2.16 | 0.00638 | 0.0114 | 0.15 | 0.015 | 0.0401 | 0.039 | 0.0198 | 0.012 | 222 | 96.6 | 3290 | 3510 | 1560 | 966 | 3010 | 4150
CC(=O)NCC(=O)N1[C@H]2CC[C@H]1c1cc(Nc3ncc(C(F)(F)F)c(NC4CCC4)n3)ccc12 + Cc1nc(Nc2ncc(C(=O)Nc3c(C)cccc3Cl)s2)cc(N2CCN(CCO)CC2)n1 [dasatinib] | 0.86 | 1.17 | 1.83 | 2.34 | 1.61 | 1.11 | 2.3 | 1.47 | 0.0101 | 0.0109 | 0.116 | 0.0199 | 0.028 | 0.0773 | 0.0156 | 0.0154 | 18.1 | 24.1 | 429 | 625 | 118 | 30.6 | 711 | 128
CNC(=O)c1nn(C)c2c1C(C)(C)Cc1cnc(Nc3ccc(N4CCN(C)CC4)cc3)nc1-2 + Cc1nc(Nc2ncc(C(=O)Nc3c(C)cccc3Cl)s2)cc(N2CCN(CCO)CC2)n1 [dasatinib] | 1.35 | 1.03 | 1.63 | 3.23 | 1.77 | 1.11 | 2.02 | 1.71 | 0.00492 | 0.0123 | 0.189 | 0.0243 | 0.0274 | 0.0344 | 0.0113 | 0.0108 | 35.5 | 22 | 137 | 3470 | 245 | 38.8 | 279 | 261
Oc1ccc(-c2nc(-c3ccc(F)cc3)c(-c3ccncc3)[nH]2)cc1 + Cc1nc(Nc2ncc(C(=O)Nc3c(C)cccc3Cl)s2)cc(N2CCN(CCO)CC2)n1 [dasatinib] | 2.57 | 1.74 | 2.53 | 3.53 | 2.27 | 2.52 | 3.66 | 2.45 | 0.609 | 0.279 | 0.634 | 0.909 | 0.56 | 0.555 | 0.768 | 0.652 | > 10000 | 449 | > 10000 | > 10000 | > 10000 | > 10000 | > 10000 | > 10000
O=C1NCCc2[nH]c(-c3ccncc3)cc21 + Cc1nc(Nc2ncc(C(=O)Nc3c(C)cccc3Cl)s2)cc(N2CCN(CCO)CC2)n1 [dasatinib] | 1.73 | 1.72 | 2.27 | 3.35 | 2.35 | 1.98 | 3.26 | 2.23 | 0.00389 | 0.0122 | 0.185 | 0.0141 | 0.463 | 0.0883 | 0.0107 | 0.0225 | 196 | 578 | 2040 | 3110 | 8350 | 718 | 2310 | 4170
Cc1[nH]c(/C=C2\C(=O)Nc3ccc(S(=O)(=O)Cc4c(Cl)cccc4Cl)cc32)c(C)c1C(=O)N1CCC[C@@H]1CN1CCCC1 + Cc1nc(Nc2ncc(C(=O)Nc3c(C)cccc3Cl)s2)cc(N2CCN(CCO)CC2)n1 [dasatinib] | 2.38 | 1.93 | 2.73 | 2.71 | 2.14 | 2.04 | 2.84 | 2.19 | 0.0107 | 0.00119 | 0.00273 | 0.0111 | 0.00439 | 0.00431 | 0.0078 | 0.00449 | 3300 | 1060 | 4110 | 2100 | 2300 | 2160 | 3100 | 4240
N#CC[C@H](C1CCCC1)n1cc(-c2ncnc3[nH]ccc23)cn1 + Cc1nc(Nc2ncc(C(=O)Nc3c(C)cccc3Cl)s2)cc(N2CCN(CCO)CC2)n1 [dasatinib] | 2.44 | 1.97 | 2.61 | 3.44 | 2.39 | 2.21 | 3.91 | 2.5 | 0.536 | 0.504 | 0.686 | 0.911 | 0.557 | 0.331 | 0.486 | 0.689 | > 10000 | > 10000 | > 10000 | > 10000 | > 10000 | 4270 | > 10000 | > 10000
CN(C)C1CCN(C(=O)c2ccc(NC(=O)Nc3ccc(-c4nc(N5CCOCC5)nc(N5CCOCC5)n4)cc3)cc2)CC1 + Cc1nc(Nc2ncc(C(=O)Nc3c(C)cccc3Cl)s2)cc(N2CCN(CCO)CC2)n1 [dasatinib] | 1.23 | 1.62 | 1.91 | 1.37 | 2.27 | 1.74 | 3.11 | 1.04 | 0.00554 | 0.125 | 0.112 | 0.0743 | 0.147 | 0.0335 | 0.117 | 0.107 | 49.8 | 165 | 306 | 56.3 | 2870 | 302 | 1680 | 19.2
COc1ccc(-c2cc3c(C)nc(N)nc3n([C@H]3CC[C@H](OCCO)CC3)c2=O)cn1 + Cc1nc(Nc2ncc(C(=O)Nc3c(C)cccc3Cl)s2)cc(N2CCN(CCO)CC2)n1 [dasatinib] | 1.15 | 1 | 1.35 | 2.3 | 1.37 | 1.12 | 1.67 | 1.37 | 0.0021 | 0.0415 | 0.0233 | 0.161 | 0.0148 | 0.00992 | 0.00781 | 0.0663 | 40.2 | 15.4 | 62.1 | 491 | 94.6 | 41.7 | 129 | 79.4
CC(C)CC(=O)Nc1n[nH]c2c1CN(C(=O)C1CCN(C)CC1)C2(C)C + Cc1nc(Nc2ncc(C(=O)Nc3c(C)cccc3Cl)s2)cc(N2CCN(CCO)CC2)n1 [dasatinib] | 1.21 | 1.11 | 2.43 | 2.59 | 2.32 | 1.99 | 3.13 | 1.7 | 0.0032 | 0.0258 | 0.184 | 0.00865 | 0.288 | 0.0614 | 0.0113 | 0.00656 | 85.8 | 18.9 | 2840 | 1290 | 3220 | 842 | 1960 | 248
OCc1ccc(-c2ccc(-c3ccc(CO)s3)o2)s1 + Cc1nc(Nc2ncc(C(=O)Nc3c(C)cccc3Cl)s2)cc(N2CCN(CCO)CC2)n1 [dasatinib] | 1.04 | 1.2 | 0.849 | 2.69 | 0.925 | 0.396 | 3.23 | 1.8 | 0.0022 | 0.0471 | 0.0365 | 0.292 | 0.0624 | 0.00172 | 0.0841 | 0.0563 | 18 | 69.6 | 15 | 1700 | 9.16 | 4.49 | 917 | 219
